# US7964624B1, “Inhibitors of serine proteases” (priority 2005, dated 2011)
# Target: T1, full-length hepatitis C viral protein NS3•4A (Hepatitis C virus genotype 1a, UniProt P27958)
# T1 construct: hexa-histidine (N); made in house; host or cells: Sf9 insect cells (baculovirus, pVL1392)
# Experiment: biochemical
# Design: species or system HCV sub-type strain 1a
# Details: Enzyme Assay 2 (HCV NS3 Peptide Cleavage Assay) activity, apparent Ki class
row,Compound,Ki [nM]
1,CCC[C@H](NC(=O)[C@@H]1C[C@]2(CC(c3cc(Cl)c(OC)cc3C)=NO2)CN1C(=O)[C@@H](NC(=O)OC1CCCC1)C(C)(C)C)C(=O)C(=O)NC [Compound 650],100 to 500
2,CCC[C@H](NC(=O)[C@@H]1C[C@]2(CC(c3cc(Cl)cc(C)c3OC)=NO2)CN1C(=O)[C@@H](NC(=O)CC1CCCCC1)C(C)(C)C)C(=O)C(=O)NC1CC1 [Compound 643],< 100
3,CCC[C@H](NC(=O)[C@@H]1C[C@@]2(CC(c3cc(Cl)c4c(c3)CCCN4C)=NO2)CN1C(=O)[C@@H](NC(=O)OC(C)(C)C)C(C)(C)C)C(=O)C(=O)NC1CC1 [Compound 600],100 to 500
4,CCC[C@H](NC(=O)[C@@H]1C[C@]2(CC(c3ccc(F)c(Cl)c3)=NO2)CN1C(=O)[C@@H](NC(=O)OC(C)(C)C)C(C)(C)C)C(=O)C(=O)NC1CC1 [Compound 629],< 100
5,CCC[C@H](NC(=O)[C@@H]1C[C@]2(CC(c3cccc4cccnc34)=NO2)CN1C(=O)[C@@H](NC(=O)OC(C)(C)C)C(C)(C)C)C(=O)C(=O)NC [Compound 644],100 to 500
6,CCC[C@H](NC(=O)[C@@H]1C[C@]2(CC(c3cc(C)c(OC)c(C)c3)=NO2)CN1C(=O)[C@@H](NC(=O)CC1CCCCCC1)C(C)(C)C)C(=O)C(N)=O [Compound 728],< 100

# Target: T2, HCV NS3 protease domain (Hepatitis C virus genotype 1b, UniProt Q9WMX2)
# T2 construct: The first 181 amino acids of NS3 (residues 1027-1207 of the viral polyprotein); hexa-histidine (C); made in house; host or cells: E. coli BL21/DE3 pLysS
# Experiment: biochemical
# Details: Enzyme Assay 1 (HCV NS3 Protease Domain Peptide Cleavage Assay) activity, apparent Ki class
row,Compound,Ki [nM]
1,CC(C)(C)NC(=O)N[C@H](C(=O)N1C[C@@]2(CC(c3cccc(Cl)c3)=NO2)C[C@H]1C(=O)NC(CC1CCC1)C(=O)C(=O)NC1CC1)C(C)(C)C (stereo partly shown) [Compound 542],< 100
2,CCC[C@H](NC(=O)[C@@H]1C[C@]2(CC(c3cccc(Cl)c3)=NO2)CN1C(=O)[C@@H](NC(=O)[C@H]1CC[C@@H](OC)CC1)C(C)(C)C)C(=O)C(=O)NC1CC1 [Compound 108],100 to 500
3,CCC[C@H](NC(=O)[C@@H]1C[C@]2(CC(c3ccc(F)cc3)=NO2)CN1C(=O)OCC1c2ccccc2-c2ccccc21)C(=O)C(=O)NC1CC1 [Compound 533],> 500
4,CCC[C@H](NC(=O)[C@@H]1C[C@]2(CC(c3ccc4c(c3)CCC(C)(C)O4)=NO2)CN1C(=O)[C@@H](NC(=O)O[C@H]1CCOC1)C(C)(C)C)C(=O)C(=O)NC1CC1 [Compound 150],100 to 500
5,CCC[C@H](NC(=O)[C@@H]1C[C@]2(CC(c3cccc(Cl)c3)=NO2)CN1C(=O)[C@@H](NC(=O)CC1=C(c2cccs2)CCC1=O)C(C)(C)C)C(=O)C(=O)NC1CC1 [Compound 402],100 to 500
6,COc1ccc(C2=NO[C@@]3(C2)C[C@@H](C(=O)NC(CC2CCC2)C(=O)C(N)=O)N(C(=O)[C@@H](NC(=O)OCc2ccccc2)C(C)(C)C)C3)c(OC)c1 (stereo partly shown) [Compound 424],100 to 500
7,CC(C)(C)NC(=O)N[C@H](C(=O)N1C[C@@]2(CC(c3cccc(Cl)c3)=NO2)C[C@H]1C(=O)NC(CC1CCC1)C(=O)C(N)=O)C(C)(C)C (stereo partly shown) [Compound 247],< 100
8,CCC[C@H](NC(=O)[C@@H]1C[C@]2(CC(c3cc(F)c(F)c(F)c3)=NO2)CN1C(=O)O[C@H]1CCOC1)C(=O)C(=O)NC1CC1 [Compound 414],> 500
9,CCC[C@H](NC(=O)[C@@H]1C[C@]2(CC(CC)=NO2)CN1C(=O)[C@@H](NC(=O)OCc1ccccc1)C(C)(C)C)C(=O)C(=O)NC1CC1 [Compound 383],> 500
10,CCC[C@H](NC(=O)[C@@H]1C[C@]2(CC(c3ccc(Br)o3)=NO2)CN1C(=O)[C@@H](NC(=O)CC1CCCCC1)C(C)(C)C)C(=O)C(=O)NC1CC1 [Compound 179],100 to 500
11,CCC[C@H](NC(=O)[C@@H]1C[C@]2(CC(c3c4ccccc4cc4ccccc34)=NO2)CN1C(=O)[C@@H](NC(=O)OCc1ccccc1)C(C)(C)C)C(=O)C(=O)NC1CC1 [Compound 199],> 500
12,CCC[C@H](NC(=O)[C@@H]1C[C@]2(CC(c3ccc4c(c3)OCO4)=NO2)CN1C(=O)[C@@H](NC(=O)CC1CCOCC1)C(C)(C)C)C(=O)C(=O)NC1CC1 [Compound 82],100 to 500
13,CCC[C@H](NC(=O)[C@@H]1C[C@]2(CC(c3cccc(Cl)c3)=NO2)CN1C(=O)[C@@H](NC(=O)NCc1cc(OC)c(OC)c(OC)c1)C(C)(C)C)C(=O)C(=O)NC1CC1 [Compound 259],100 to 500
14,CCC[C@H](NC(=O)[C@@H]1C[C@]2(CC(c3cccc(Cl)c3)=NO2)CN1C(=O)[C@@H](NC(=O)Cc1cc(F)ccc1C)C(C)(C)C)C(=O)C(=O)NC1CC1 [Compound 155],> 500
15,CCC[C@H](NC(=O)[C@@H]1C[C@]2(CC(c3ccc4c(c3)OCO4)=NO2)CN1C(=O)c1ccc[nH]1)C(=O)C(=O)NC1CC1 [Compound 464],> 500
16,CCC[C@H](NC(=O)[C@@H]1C[C@]2(CC(c3cccc(Cl)c3)=NO2)CN1C(=O)[C@@H](NC(=O)NC1CCN(C(=O)OCc2ccccc2)CC1)C(C)(C)C)C(=O)C(=O)NC1CC1 [Compound 261],100 to 500
17,CCC[C@H](NC(=O)[C@@H]1C[C@]2(CC(c3cccc(Cl)c3)=NO2)CN1C(=O)[C@@H](NC(=O)OCc1ccccc1)C(C)(C)C)C(=O)C(=O)NC1CC1 [Compound 526],100 to 500
18,CCC[C@H](NC(=O)[C@@H]1C[C@]2(CC(c3nn(C)cc3Cl)=NO2)CN1C(=O)[C@@H](NC(=O)CC1CCCCC1)C(C)(C)C)C(=O)C(=O)NC1CC1 [Compound 495],> 500
19,CCC[C@H](NC(=O)[C@@H]1C[C@]2(CC(c3cccc(Cl)c3)=NO2)CN1C(=O)[C@@H](NC(=O)CC1CCCCCC1)C(C)(C)C)C(=O)C(=O)NC1CC1 [Compound 360],> 500
20,CCC[C@H](NC(=O)[C@@H]1C[C@]2(CC(c3cc(F)cc(Cl)c3)=NO2)CN1C(=O)[C@@H](NC(=O)CC1CCOCC1)C(C)(C)C)C(=O)C(=O)NC1CC1 [Compound 234],100 to 500

row,Compound,Ki [nM]
1,CCC[C@H](NC(=O)[C@@H]1C[C@]2(CC(C(=O)NCC)=NO2)CN1C(=O)[C@@H](NC(=O)O[C@H]1CCOC1)C(C)(C)C)C(=O)C(=O)NC1CC1 [Compound 146],> 500
2,CCC[C@H](NC(=O)[C@@H]1C[C@]2(CC(c3ccc4c(c3)OCO4)=NO2)CN1C(=O)[C@@H](NC(=O)O[C@H]1CCOC1)C(C)(C)C)C(=O)C(=O)NC1CC1 [Compound 527],100 to 500
3,CCC[C@H](NC(=O)[C@@H]1C[C@]2(CC(c3cccc(Cl)c3)=NO2)CN1C(=O)[C@@H](NC(=O)Cc1cc2c(cc1Cl)OCO2)C(C)(C)C)C(=O)C(=O)NC1CC1 [Compound 449],100 to 500
4,CCC[C@H](NC(=O)[C@@H]1C[C@]2(CC(c3cccc(Cl)c3)=NO2)CN1C(=O)[C@@H](NC(=O)OCc1cc(F)cc(F)c1)C(C)(C)C)C(=O)C(=O)NC1CC1 [Compound 203],100 to 500
5,CCC[C@H](NC(=O)[C@@H]1C[C@]2(CC(c3ccc(Cl)c(Cl)c3)=NO2)CN1C(=O)[C@@H](NC(=O)CC1CCOCC1)C(C)(C)C)C(=O)C(=O)NC1CC1 [Compound 78],100 to 500
6,CCC[C@H](NC(=O)[C@@H]1C[C@]2(CC(c3ccc(C)c(C)c3)=NO2)CN1C(=O)[C@@H](NC(=O)O[C@H]1CCOC1)C(C)(C)C)C(=O)C(=O)NC1CC1 [Compound 36],100 to 500
7,CCC[C@H](NC(=O)[C@@H]1C[C@]2(CC(CC)=NO2)CN1C(=O)[C@@H](NC(=O)[C@@H](NC(=O)c1cnccn1)C1CCCCC1)C(C)(C)C)C(=O)C(=O)NC1CC1 [Compound 547],< 100
8,CCC[C@H](NC(=O)[C@@H]1C[C@]2(CC(c3ccc4c(c3)OCO4)=NO2)CN1C(=O)[C@@H](NS(=O)(=O)c1cccc2ccccc12)C(C)(C)C)C(=O)C(=O)NC1CC1 [Compound 536],> 500
9,CCC[C@H](NC(=O)[C@@H]1C[C@]2(CC(c3cccc(Cl)c3)=NO2)CN1C(=O)[C@@H](NC(=O)O[C@H]1CO[C@H]2OCC[C@H]21)C(C)(C)C)C(=O)C(=O)NC1CC1 [Compound 387],100 to 500
10,CCC[C@H](NC(=O)[C@@H]1C[C@]2(CC(c3ccccc3)=NO2)CN1C(=O)[C@@H](NC(=O)Cc1cccnc1)C(C)(C)C)C(=O)C(=O)NC1CC1 [Compound 283],> 500
11,CCC[C@H](NC(=O)[C@@H]1C[C@]2(CC(c3cccc(Cl)c3)=NO2)CN1C(=O)[C@@H](NC(=O)OCCc1cccs1)C(C)(C)C)C(=O)C(=O)NC1CC1 [Compound 582],100 to 500
12,CCC[C@H](NC(=O)[C@@H]1C[C@]2(CC(c3cccc(Cl)c3)=NO2)CN1C(=O)[C@@H](NC(=O)OC1CCOCC1)C(C)(C)C)C(=O)C(=O)NC1CC1 [Compound 374],100 to 500
13,CCC[C@H](NC(=O)[C@@H]1C[C@]2(CC(c3cccc(Cl)c3)=NO2)CN1C(=O)[C@@H](NC(=O)c1cccc([C@@H](C)C#N)c1)C(C)(C)C)C(=O)C(=O)NC1CC1 [Compound 324],> 500
14,CCCC1=NO[C@]2(C1)C[C@@H](C(=O)N[C@@H](CCC)C(=O)C(=O)NC1CC1)N(C(=O)[C@@H](NC(=O)OC1CCOC1)C(C)(C)C)C2 (stereo partly shown) [Compound 243],> 500
15,CCC[C@H](NC(=O)[C@@H]1C[C@]2(CC(c3ccc(CC)cc3)=NO2)CN1C(=O)O[C@H]1CCOC1)C(=O)C(=O)NC1CC1 [Compound 47],> 500
16,CCC[C@H](NC(=O)[C@@H]1C[C@]2(CC(c3cccc(Cl)c3)=NO2)CN1C(=O)[C@@H](NC(=O)OCc1ccc(C)cc1)C(C)(C)C)C(=O)C(=O)NC1CC1 [Compound 471],100 to 500
17,CCC[C@H](NC(=O)[C@@H]1C[C@]2(CC(c3cccc(Cl)c3)=NO2)CN1C(=O)[C@@H](NC(=O)O[C@H]1CCOC1)C(C)(C)C)C(=O)C(=O)NC1CC1 [Compound 83],100 to 500
18,CCC[C@H](NC(=O)[C@@H]1C[C@]2(CC(c3ccc(Cl)c(Cl)c3)=NO2)CN1C(=O)[C@@H](NC(=O)CC1CCCCC1)C(C)(C)C)C(=O)C(=O)NC1CC1 [Compound 323],100 to 500
19,C=CCOC(=O)N[C@H](C(=O)N1C[C@@]2(CC(c3ccccc3)=NO2)C[C@H]1C(=O)N[C@@H](CCC)C(=O)C(=O)NC1CC1)C(C)(C)C [Compound 151],100 to 500
20,CCC[C@H](NC(=O)[C@@H]1C[C@]2(CC(c3cccc(Cl)c3)=NO2)CN1C(=O)[C@@H](NC(=O)NC1CCCCC1)C(C)(C)C)C(=O)C(=O)NC1CC1 [Compound 33],< 100
